Measurements published in ChEMBL document CHEMBL4152219, “Discovery of 1,8-acridinedione derivatives as novel GCN5 inhibitors via high throughput screening” (Eur J Med Chem, 2018).
One block for each compound: values may come before it. The source made the active and inactive calls. The calls are words filed in the database; no cut-off is given here.

Columns and labels:
[1] = target: Histone acetyltransferase GCN5 (Saccharomyces cerevisiae S288c) (UniProt Q03330); assay: Inhibition of yeast GCN5 (99 to 262 residues) expressed in Escherichia coli BL21 (DE3) at 100 uM using biotin tagged H3 peptide ( 1 to 23 residues) as substrate preincubated for 30 mins followed by AC-CoA and substrate addition and measured after 30 mins by AlphaScreen assay
Sequence of Histone acetyltransferase GCN5 (Saccharomyces cerevisiae S288c) (Q03330 whole entry, the tested form may be a part): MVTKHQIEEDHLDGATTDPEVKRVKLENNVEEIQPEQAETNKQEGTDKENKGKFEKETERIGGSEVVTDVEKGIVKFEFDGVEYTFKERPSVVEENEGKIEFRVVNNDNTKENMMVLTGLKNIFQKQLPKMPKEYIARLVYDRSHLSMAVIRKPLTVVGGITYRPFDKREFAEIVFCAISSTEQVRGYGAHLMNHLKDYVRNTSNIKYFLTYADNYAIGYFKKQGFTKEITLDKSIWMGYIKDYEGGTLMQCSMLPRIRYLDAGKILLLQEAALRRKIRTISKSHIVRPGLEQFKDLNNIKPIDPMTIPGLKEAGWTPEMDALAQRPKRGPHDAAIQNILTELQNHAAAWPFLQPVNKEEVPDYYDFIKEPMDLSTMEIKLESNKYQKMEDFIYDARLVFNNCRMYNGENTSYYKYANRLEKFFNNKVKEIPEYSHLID

[2] = target: T1, Histone acetyltransferase GCN5 (Saccharomyces cerevisiae S288c, UniProt Q03330); assay: Inhibition of yeast GCN5 (99 to 262 residues) expressed in Escherichia coli BL21 (DE3) preincubated for 15 mins followed by biotin tagged H3 peptide ( 1 to 23 residues) and [3H]-Ac-CoA addition and measured after 60 mins by radioactive acetylation assay
T1 sequence (Q03330 whole entry, the tested form may be a part): as above

[3] = target: Histone acetyltransferase GCN5 (Saccharomyces cerevisiae S288c) (UniProt Q03330); assay: Inhibition of yeast GCN5 (99 to 262 residues) expressed in Escherichia coli BL21 (DE3) at 33 uM preincubated for 15 mins followed by biotin tagged H3 peptide ( 1 to 23 residues) and [3H]-Ac-CoA addition and measured after 60 mins by radioactive acetylation assay
[4] = target: Histone acetyltransferase KAT2A (Homo sapiens) (UniProt Q92830); assay: Inhibition of GCN5 in human MV4-11 cells assessed as reduction of acetylated H3K14 level up to 100 uM after 24 hrs by Western blot analysis; type: cell-based
Sequence of Histone acetyltransferase KAT2A (Homo sapiens) (Q92830 2-837 limits assumed): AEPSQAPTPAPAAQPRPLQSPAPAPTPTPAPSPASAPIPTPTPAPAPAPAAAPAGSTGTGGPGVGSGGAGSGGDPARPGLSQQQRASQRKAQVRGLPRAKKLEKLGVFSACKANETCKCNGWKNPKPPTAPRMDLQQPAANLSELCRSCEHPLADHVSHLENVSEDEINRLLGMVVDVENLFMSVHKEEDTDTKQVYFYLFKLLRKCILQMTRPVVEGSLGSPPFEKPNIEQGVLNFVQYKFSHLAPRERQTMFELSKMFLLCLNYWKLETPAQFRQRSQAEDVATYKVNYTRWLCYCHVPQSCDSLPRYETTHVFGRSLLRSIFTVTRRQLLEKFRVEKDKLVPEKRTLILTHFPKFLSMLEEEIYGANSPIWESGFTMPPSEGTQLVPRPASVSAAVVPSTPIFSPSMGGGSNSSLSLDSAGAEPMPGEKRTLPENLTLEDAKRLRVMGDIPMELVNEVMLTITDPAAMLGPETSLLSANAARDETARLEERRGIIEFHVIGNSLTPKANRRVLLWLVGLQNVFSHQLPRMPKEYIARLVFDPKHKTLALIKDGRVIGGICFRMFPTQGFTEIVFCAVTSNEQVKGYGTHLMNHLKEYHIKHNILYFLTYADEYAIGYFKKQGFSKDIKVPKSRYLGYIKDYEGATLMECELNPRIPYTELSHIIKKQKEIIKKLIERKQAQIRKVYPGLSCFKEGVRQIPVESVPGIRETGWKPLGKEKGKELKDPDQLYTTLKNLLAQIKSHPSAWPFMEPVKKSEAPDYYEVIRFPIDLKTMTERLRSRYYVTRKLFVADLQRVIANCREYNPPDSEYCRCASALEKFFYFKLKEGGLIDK

MV4-11 [5] = assay: Antiproliferative activity against human MV4-11 cells after 3 days by celltiter-glo luminescent assay; type: functional, cell-based; settings: for IC50: MV4-11, 72 h
[6] = target: Histone acetyltransferase GCN5 (Saccharomyces cerevisiae S288c) (UniProt Q03330); assay: Binding affinity to yeast GCN5 (99 to 262 residues) expressed in Escherichia coli BL21 (DE3) at 200 uM by CPMG NMR spectroscopy
[7] = target: Histone acetyltransferase GCN5 (Saccharomyces cerevisiae S288c) (UniProt Q03330); assay: Binding affinity to yeast GCN5 (99 to 262 residues) expressed in Escherichia coli BL21 (DE3) at 200 uM by STD NMR spectroscopy
[8] = target: T1, Histone acetyltransferase GCN5; assay: Binding affinity to yeast GCN5 (99 to 262 residues) expressed in Escherichia coli BL21 (DE3) by SPR analysis
MV4-11 [9] = assay: Cell cycle arrest in human MV4-11 cells accumulation at G1 phase at 25 uM after 24 hrs bby propidium iodide staining-based flow cytometric analysis (reference value: 52.56%); type: functional
HUVEC = assay: Antiproliferative activity against HUVEC after 3 days by celltiter-glo luminescent assay; type: cell-based; settings: human, 72 h
MV4-11 [10] = assay: Cell cycle arrest in human MV4-11 cells accumulation at G0/G1 phase after 24 hrs bby propidium iodide staining-based flow cytometric analysis; type: functional
MV4-11 [11] = assay: Cell cycle arrest in human MV4-11 cells accumulation at S phase at 25 uM after 24 hrs bby propidium iodide staining-based flow cytometric analysis (reference value: 42.77%); type: functional
[12] = target: Histone-lysine N-methyltransferase EZH2 (Homo sapiens) (UniProt Q15910); assay: Inhibition of EZH2 (unknown origin) at 33 uM relative to control
Sequence of Histone-lysine N-methyltransferase EZH2 (Homo sapiens) (Q15910 whole entry, looked up): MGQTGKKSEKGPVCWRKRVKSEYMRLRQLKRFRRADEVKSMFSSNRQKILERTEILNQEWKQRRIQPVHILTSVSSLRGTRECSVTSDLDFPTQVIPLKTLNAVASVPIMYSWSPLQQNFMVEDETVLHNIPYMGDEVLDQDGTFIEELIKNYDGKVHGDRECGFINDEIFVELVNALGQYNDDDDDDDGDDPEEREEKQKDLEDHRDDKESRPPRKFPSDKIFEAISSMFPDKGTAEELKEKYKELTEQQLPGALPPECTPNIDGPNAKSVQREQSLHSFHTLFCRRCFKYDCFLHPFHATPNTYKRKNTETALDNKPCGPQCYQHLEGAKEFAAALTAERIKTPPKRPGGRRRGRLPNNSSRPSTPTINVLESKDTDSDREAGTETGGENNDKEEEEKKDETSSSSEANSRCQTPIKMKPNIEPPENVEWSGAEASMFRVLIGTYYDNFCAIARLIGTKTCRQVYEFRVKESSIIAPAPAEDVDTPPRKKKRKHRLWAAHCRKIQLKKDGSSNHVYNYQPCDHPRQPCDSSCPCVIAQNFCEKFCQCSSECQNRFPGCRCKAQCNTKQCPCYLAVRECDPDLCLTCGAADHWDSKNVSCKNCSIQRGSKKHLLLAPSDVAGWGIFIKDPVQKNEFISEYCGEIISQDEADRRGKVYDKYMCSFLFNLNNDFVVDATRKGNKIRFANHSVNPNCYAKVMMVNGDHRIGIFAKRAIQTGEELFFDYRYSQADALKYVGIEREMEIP

MV4-11 [13] = assay: Induction of apoptosis in human MV4-11 cells assessed as early apototic cells at 20 uM after 72 hrs by Annexin-V FITC/propidium iodide staining based flow cytometric analysis (reference value: 0.75%); type: functional
MV4-11 [14] = assay: Induction of apoptosis in human MV4-11 cells assessed as early apototic cells at 40 uM after 72 hrs by Annexin-V FITC/propidium iodide staining based flow cytometric analysis (reference value: 0.75%); type: functional
MV4-11 [15] = assay: Induction of apoptosis in human MV4-11 cells assessed as viable cells at 20 uM after 72 hrs by Annexin-V FITC/propidium iodide staining based flow cytometric analysis (reference value: 95.2%); type: functional; settings: MV4-11, 72 h, read-out: Activity
MV4-11 [16] = assay: Cell cycle arrest in human MV4-11 cells accumulation at G2 phase at 25 uM after 24 hrs bby propidium iodide staining-based flow cytometric analysis (reference value: 4.68%); type: functional
MV4-11 [17] = assay: Induction of apoptosis in human MV4-11 cells after 72 hrs by Annexin-V FITC/propidium iodide staining based flow cytometric analysis; type: functional, cell-based
[18] = target: T2, Histone-lysine N-methyltransferase EHMT2 (Homo sapiens) (UniProt Q96KQ7); assay: Inhibition of G9a (unknown origin) at 33 uM relative to control
T2 sequence (whole entry): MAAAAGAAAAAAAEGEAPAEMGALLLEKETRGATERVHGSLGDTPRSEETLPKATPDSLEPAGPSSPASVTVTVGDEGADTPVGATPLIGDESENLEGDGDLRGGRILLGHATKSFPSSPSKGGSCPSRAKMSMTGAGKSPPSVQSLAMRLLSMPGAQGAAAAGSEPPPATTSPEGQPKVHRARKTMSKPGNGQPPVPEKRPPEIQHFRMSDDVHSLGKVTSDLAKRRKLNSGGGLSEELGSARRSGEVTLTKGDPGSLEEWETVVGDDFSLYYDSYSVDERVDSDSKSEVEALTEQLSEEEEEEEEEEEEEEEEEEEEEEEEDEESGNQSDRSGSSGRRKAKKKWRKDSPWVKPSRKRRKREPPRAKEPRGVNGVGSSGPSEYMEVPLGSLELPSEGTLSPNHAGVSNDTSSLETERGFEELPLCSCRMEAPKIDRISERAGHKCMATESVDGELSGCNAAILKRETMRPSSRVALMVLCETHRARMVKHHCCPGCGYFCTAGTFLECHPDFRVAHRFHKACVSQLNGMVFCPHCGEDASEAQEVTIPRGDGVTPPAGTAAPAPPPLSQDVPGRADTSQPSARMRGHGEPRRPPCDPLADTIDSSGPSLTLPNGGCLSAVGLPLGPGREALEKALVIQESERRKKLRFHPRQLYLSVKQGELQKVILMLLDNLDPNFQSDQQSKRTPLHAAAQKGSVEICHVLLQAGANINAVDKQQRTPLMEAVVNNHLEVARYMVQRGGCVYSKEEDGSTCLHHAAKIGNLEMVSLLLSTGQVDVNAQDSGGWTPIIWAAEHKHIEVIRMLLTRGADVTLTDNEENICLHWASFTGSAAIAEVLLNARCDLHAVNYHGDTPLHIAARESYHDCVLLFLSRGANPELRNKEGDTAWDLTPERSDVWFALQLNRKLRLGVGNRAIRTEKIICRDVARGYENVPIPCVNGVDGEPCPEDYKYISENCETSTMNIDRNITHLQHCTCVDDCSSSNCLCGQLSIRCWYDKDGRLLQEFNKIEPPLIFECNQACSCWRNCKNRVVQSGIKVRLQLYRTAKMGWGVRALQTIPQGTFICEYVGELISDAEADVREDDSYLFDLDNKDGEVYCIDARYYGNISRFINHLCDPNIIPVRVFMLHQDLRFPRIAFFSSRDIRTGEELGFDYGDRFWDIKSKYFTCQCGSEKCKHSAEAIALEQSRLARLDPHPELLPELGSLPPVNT

MV4-11 [19] = assay: Induction of apoptosis in human MV4-11 cells assessed as viable cells at 40 uM after 72 hrs by Annexin-V FITC/propidium iodide staining based flow cytometric analysis (reference value: 95.2%); type: functional; settings: MV4-11, 72 h, read-out: Activity
MV4-11 [20] = assay: Cell cycle arrest in human MV4-11 cells accumulation at S phase at 12.5 uM after 24 hrs bby propidium iodide staining-based flow cytometric analysis (reference value: 42.77%); type: functional
[21] = target: Histone acetyltransferase p300 (Homo sapiens) (UniProt Q09472); assay: Inhibition of p300 (unknown origin) at 33 uM relative to control
Sequence of Histone acetyltransferase p300 (Homo sapiens) (Q09472 whole entry): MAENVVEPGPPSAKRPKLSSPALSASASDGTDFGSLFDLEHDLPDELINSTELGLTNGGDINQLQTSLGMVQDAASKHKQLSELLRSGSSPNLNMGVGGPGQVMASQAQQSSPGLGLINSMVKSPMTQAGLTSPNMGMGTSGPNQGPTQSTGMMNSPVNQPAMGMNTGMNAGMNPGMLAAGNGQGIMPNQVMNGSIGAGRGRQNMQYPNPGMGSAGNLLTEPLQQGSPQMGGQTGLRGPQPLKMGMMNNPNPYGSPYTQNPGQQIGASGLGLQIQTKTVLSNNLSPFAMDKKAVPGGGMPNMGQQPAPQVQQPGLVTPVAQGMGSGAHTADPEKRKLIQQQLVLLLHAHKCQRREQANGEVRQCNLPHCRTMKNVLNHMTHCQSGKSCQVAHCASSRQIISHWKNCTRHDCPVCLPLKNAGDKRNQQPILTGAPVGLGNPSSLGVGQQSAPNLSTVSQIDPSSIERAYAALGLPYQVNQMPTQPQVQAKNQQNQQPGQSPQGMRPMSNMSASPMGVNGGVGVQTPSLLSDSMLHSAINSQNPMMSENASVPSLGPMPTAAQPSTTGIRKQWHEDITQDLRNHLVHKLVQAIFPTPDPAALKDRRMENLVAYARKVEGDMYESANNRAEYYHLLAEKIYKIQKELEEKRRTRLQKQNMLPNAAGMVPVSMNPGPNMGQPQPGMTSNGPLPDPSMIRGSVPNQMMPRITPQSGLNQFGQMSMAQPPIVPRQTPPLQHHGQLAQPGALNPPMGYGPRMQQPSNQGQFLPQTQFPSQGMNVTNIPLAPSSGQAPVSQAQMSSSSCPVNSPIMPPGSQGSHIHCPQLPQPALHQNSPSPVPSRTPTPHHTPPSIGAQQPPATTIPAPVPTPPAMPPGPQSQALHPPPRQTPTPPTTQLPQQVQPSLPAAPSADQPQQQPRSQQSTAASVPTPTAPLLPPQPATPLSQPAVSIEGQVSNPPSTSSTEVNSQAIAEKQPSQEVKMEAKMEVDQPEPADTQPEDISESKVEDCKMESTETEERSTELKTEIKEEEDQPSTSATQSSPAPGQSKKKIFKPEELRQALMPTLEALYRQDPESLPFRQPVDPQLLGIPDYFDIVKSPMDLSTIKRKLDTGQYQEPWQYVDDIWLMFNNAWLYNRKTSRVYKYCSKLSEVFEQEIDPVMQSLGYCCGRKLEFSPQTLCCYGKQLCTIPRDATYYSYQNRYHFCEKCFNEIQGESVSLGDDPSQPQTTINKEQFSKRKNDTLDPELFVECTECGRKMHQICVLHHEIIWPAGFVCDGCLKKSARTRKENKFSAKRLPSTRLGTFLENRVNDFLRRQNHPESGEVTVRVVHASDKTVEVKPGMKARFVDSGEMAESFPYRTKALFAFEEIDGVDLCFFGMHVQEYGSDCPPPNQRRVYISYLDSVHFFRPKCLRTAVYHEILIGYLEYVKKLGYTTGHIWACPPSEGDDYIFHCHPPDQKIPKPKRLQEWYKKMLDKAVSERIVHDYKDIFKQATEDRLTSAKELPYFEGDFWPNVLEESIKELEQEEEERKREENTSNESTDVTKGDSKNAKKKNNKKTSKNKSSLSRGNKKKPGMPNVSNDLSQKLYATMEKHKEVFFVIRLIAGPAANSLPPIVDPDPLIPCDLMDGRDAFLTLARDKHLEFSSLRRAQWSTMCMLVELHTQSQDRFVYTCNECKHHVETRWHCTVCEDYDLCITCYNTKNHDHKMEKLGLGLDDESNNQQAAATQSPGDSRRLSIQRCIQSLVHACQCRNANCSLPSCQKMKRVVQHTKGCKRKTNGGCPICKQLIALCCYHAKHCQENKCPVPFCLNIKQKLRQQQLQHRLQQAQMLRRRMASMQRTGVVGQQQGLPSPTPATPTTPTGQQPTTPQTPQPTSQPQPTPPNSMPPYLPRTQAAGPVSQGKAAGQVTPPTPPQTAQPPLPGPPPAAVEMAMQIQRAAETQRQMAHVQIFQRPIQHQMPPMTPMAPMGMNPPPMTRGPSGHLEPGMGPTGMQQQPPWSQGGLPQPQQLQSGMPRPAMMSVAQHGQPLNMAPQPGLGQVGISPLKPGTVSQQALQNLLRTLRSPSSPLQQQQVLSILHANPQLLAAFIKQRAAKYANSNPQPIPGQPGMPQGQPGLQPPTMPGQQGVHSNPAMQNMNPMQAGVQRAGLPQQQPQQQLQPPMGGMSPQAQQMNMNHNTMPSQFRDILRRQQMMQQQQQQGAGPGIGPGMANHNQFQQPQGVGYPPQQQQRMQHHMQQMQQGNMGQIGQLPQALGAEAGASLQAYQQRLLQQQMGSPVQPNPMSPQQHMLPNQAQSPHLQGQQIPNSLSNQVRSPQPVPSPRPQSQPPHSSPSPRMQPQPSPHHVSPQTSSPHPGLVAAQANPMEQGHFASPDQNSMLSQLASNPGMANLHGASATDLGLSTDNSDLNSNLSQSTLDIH

[22] = Antiproliferative activity against human […] cells after 3 days by celltiter-glo luminescent assay; type: cell-based; settings: 72 h
MV4-11 [23] = assay: Cell cycle arrest in human MV4-11 cells accumulation at G2 phase at 12.5 uM after 24 hrs bby propidium iodide staining-based flow cytometric analysis (reference value: 4.68%); type: functional
MV4-11 [24] = assay: Induction of apoptosis in human MV4-11 cells assessed as late apototic cells at 40 uM after 72 hrs by Annexin-V FITC/propidium iodide staining based flow cytometric analysis (reference value: 3.41%); type: functional
MV4-11 [25] = assay: Cell cycle arrest in human MV4-11 cells accumulation at G1 phase at 12.5 uM after 24 hrs bby propidium iodide staining-based flow cytometric analysis (reference value: 52.56%); type: functional
MV4-11 [26] = assay: Induction of apoptosis in human MV4-11 cells assessed as late apototic cells at 20 uM after 72 hrs by Annexin-V FITC/propidium iodide staining based flow cytometric analysis (reference value: 3.41%); type: functional
MV4-11 [27] = assay: Induction of apoptosis in human MV4-11 cells assessed as necrotic cells at 40 uM after 72 hrs by Annexin-V FITC/propidium iodide staining based flow cytometric analysis (reference value: 0.66%); type: functional
MV4-11 [28] = assay: Induction of apoptosis in human MV4-11 cells assessed as necrotic cells at 20 uM after 72 hrs by Annexin-V FITC/propidium iodide staining based flow cytometric analysis (reference value: 0.66%); type: functional

inhibition [1]: > 70% | IC50 [2]: 20 µM
SMILES: N#Cc1c(-c2ccc(F)cc2)cc(-c2cccs2)nc1SCC(=O)NCC(=O)O

inhibition [1]: > 70%
SMILES: COc1cc(CNC2CCCC2)ccc1OCC(=O)NC(C)(C)C

inhibition [1]: > 70% | IC50 [2]: 8.6 µM
SMILES: O=C(O)c1ccc(-c2nc3c4ccccc4c4ccccc4c3[nH]2)cc1

inhibition [1]: > 70%
SMILES: CN(C)CCOc1ccc(NC2Cc3ccccc3CSc3ccccc32)cc1 (stereo not drawn)

IC50 [2]: 16 µM
SMILES: CC1(C)CC(=O)C2=C(C1)NC1=C(C(=O)CC(C)(C)C1)C2c1ccc(OCc2ccc(C(=O)O)cc2)c(Br)c1

inhibition [3]: 15%
SMILES: CC1(C)CC(=O)C2=C(C1)NC1=C(C(=O)CC(C)(C)C1)C2c1ccc(OCc2ccccc2)c(Br)c1

inhibition [1]: > 70% | IC50 [2]: 2.9 µM
SMILES: COC(=O)c1cc(NC(=O)Cc2cccs2)cc(C(=O)OC)c1

IC50 [2]: 81 µM
SMILES: O=C(O)c1ccc(COc2ccccc2Br)cc1

SMILES: O=C1CCCC2=C1C(c1ccc(OCc3cccc(F)c3)c(Br)c1)C1=C(CCCC1=O)N2
inhibition [4]: inactive | IC50 (MV4-11 [5]): > 100 µM | inhibition [3]: 26%

Activity [6]: Active | Activity [7]: Active | inhibition [1]: > 70% | IC50 [2]: 34.7 µM | Kd [8]: 26.2 µM
SMILES: O=C1CCCC2=C1C(c1cc(Cl)c(OCc3ccc(C(=O)O)cc3)c(Cl)c1)C1=C(CCCC1=O)N2

IC50 [2]: 34 µM
SMILES: O=C1CCCC2=C1C(c1ccc(OCc3ccc(C(=O)O)cc3)cc1)c1ccc3ccccc3c1N2 (stereo not drawn)

inhibition [1]: > 70% | IC50 [2]: 19 µM
SMILES: O=c1cc(O)c2sc3nc(-c4cccs4)cc(C(F)(F)F)c3c2[nH]1

IC50 [2]: 31 µM
SMILES: COC(=O)C1=C(C)NC2=C(C(=O)CC(C)(C)C2)C1c1ccc(OCc2ccc(C(=O)O)cc2)cc1 (stereo not drawn)

inhibition [3]: 34%
SMILES: CC1=C(C#N)C(c2ccc(OCc3ccc(C(=O)O)cc3)cc2)C2=C(CCCC2=O)N1 (stereo not drawn)

inhibition [3]: 24%
SMILES: COc1cc(C2C3=C(CCCC3=O)NC3=C2C(=O)CCC3)ccc1OCc1ccc(C(=O)O)cc1

inhibition [3]: 18%
SMILES: CC1(C)CC(=O)C2=C(C1)NC1=C(C(=O)CC(C)(C)C1)C2c1ccc(O)c(Br)c1

inhibition [1]: > 70%
SMILES: CCC(=O)Nc1cccc(NC(=O)C(C)Oc2cccc(C)c2)c1 (stereo not drawn)

inhibition [4]: Active | inhibition [12]: 7% | IC50 (MV4-11 [5]): 24.7 µM | inhibition [18]: -8% | inhibition [21]: 21% | IC50 [2]: 6.8 µM | Kd [8]: 4.2 µM
SMILES: CC1(C)CC(=O)C2=C(C1)NC1=C(C(=O)CC(C)(C)C1)C2c1cc(Br)c(OCc2ccc(C(=O)O)cc2)c(Br)c1
Activity (MV4-11 [9]): 84.7% | Activity (HUVEC): Non-Toxic | Activity (MV4-11 [10]): Dose-dependent effect | Activity (MV4-11 [11]): 13.99% | Activity (MV4-11 [13]): 0.81% | Activity (MV4-11 [14]): 0.7% | Activity (MV4-11 [5]): Dose-dependent effect | viability at 20 µM (MV4-11 [15]): 82.5% | Activity (MV4-11 [16]): 1.3% | Activity (MV4-11 [17]): Dose-dependent effect | viability at 40 µM (MV4-11 [19]): 42.4% | Activity (MV4-11 [20]): 26.29% | Activity [22]: Non-Toxic | Activity (MV4-11 [23]): 1.35% | Activity (MV4-11 [24]): 54.6% | Activity (MV4-11 [25]): 72.36% | Activity (MV4-11 [26]): 16.2% | Activity (MV4-11 [27]): 2.32% | Activity (MV4-11 [28]): 0.41%
